# Laboratory results: patent US20080096807A1, “Cyclic vasoactive intestinal peptide receptor-2 agonists” (priority 2006, published 2008)
# Where two headings read alike, the source gives them in different places. Bridge positions count the residues as written; N and C are the ends. Square brackets hold non-standard residues; d marks the D form. Peptide text beside a SMILES is read from it. ξ: configuration not given here. Thr(3ξ) = CC(O)[C@H](N)C(=O)O; Nle = CCCC[C@H](N)C(=O)O
# Columns and labels:
# [1] = molecular target: T1, VPAC2 receptor (Homo sapiens, UniProt P41587); test: Sup-T1 cAMP agonist assay; format: cell-based
# T1 construct: The human T-lymphoid cell line Sup-Ti, which expresses the VPAC2 receptor; host or cells: Sup-T1 (Sup-Ti [sic]) human T-lymphoid cell line
# T1 sequence (P41587 24-438): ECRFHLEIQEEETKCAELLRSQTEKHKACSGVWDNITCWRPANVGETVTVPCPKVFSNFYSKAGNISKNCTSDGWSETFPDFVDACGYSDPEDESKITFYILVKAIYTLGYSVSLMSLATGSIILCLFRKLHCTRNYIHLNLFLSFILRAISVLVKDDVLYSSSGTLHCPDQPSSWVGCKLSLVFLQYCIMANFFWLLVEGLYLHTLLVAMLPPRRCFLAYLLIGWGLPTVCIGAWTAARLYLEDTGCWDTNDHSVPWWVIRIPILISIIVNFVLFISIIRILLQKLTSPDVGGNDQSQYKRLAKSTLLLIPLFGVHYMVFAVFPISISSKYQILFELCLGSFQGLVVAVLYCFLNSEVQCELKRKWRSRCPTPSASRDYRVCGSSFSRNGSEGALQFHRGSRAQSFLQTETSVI
# Protocol: The human T-lymphoid cell line Sup-Ti, which expresses the VPAC2 receptor, was obtained from the American Type Culture Collection (ATCC, CRL-1942) and maintained in growth medium at densities between 0.2 and 2×10^6 cells/ml in a 37° C. CO2 incubator. The growth medium was RPMI 1640 (Invitrogen) supplemented with 25 mM HEPES buffer and 10% fetal bovine serum (Gemini Bioproducts).
# To evaluate VPAC2 agonist compound activity, cells in log-phase growth were washed once with growth medium at room temperature and plated into 96-well plates at a density of 4×10^4 cells per well in 150 uL of growth medium. Fifty uL of the compounds to be tested, prepared at appropriate concentrations in growth medium, were then added to designated wells. After 5 min at room temperature, the cells were lysed by adding 25 uL of lysis reagent 1A (cAMP Biotrak EIA system, Amersham Biosciences, RPN225) to each well. The 96-well plates were kept at room temperature for 10 min with shaking and then stored at 4° C. until analysis for cAMP (within 2 hr).
# Cyclic AMP levels were determined in 100 uL of each lysate using the cAMP Biotrak Enzymeimmunoassay (EIA) kit according to the manufacture's instructions (Amersham Biosciences, RPN225). The activity of each VPAC2 agonist compound (EC50 value) was estimated by fitting the 7-concentration dose response data to a sigmoidal dose-response equation provided by the GraphPad Prism program (GraphPad Software, Inc.).
# [2] = test system: LPS-induced lung inflammation in male C57BL/6 mice; test: LPS-induced lung inflammation in male C57BL/6 mice (BAL neutrophilia); format: in vivo; conditions: BAL fluid neutrophilia
# Protocol: C57bl/6 mice are pretreated with vehicle or drug prior to an aerosol expose to lipopolysacchride (LPS, 500 μg/ml in sterile saline) for 15-30 minutes. The aerosol is generated by a Pari Ultra neb jet nebulizer, the outlet of which is connected to a small clear plastic chamber [H×W×D, 10.7×25.7×11 cm (4×10×4.5 in)] containing the animals. Bronchoalveolar lavage (BAL) is performed 24 hr later to determine the intensity of cell inflammation. BAL procedure is performed as described below.
# Mice are pretreated with vehicle or drug prior to an intranasal administration of lipopolysacchride (0.05-0.3 mg/kg in sterile saline; 50 μl total volume, 25 μl/nostril). Intranasal administration is performed by presenting small droplets of the dosing solution at the nostril using a 25-50 μl eppendorff pipet. BAL is performed 3 to 24 h post LPS challenged as described above to determine the intensity of cell inflammation.
# 24 h following LPS exposure, animals are anesthetized with pentobarbital (80-100 mg/kg, i.p.), ketamine/xyzaline (80-120 mg/kg/2-4 mg/kg, i.p.) or urethane (1.5-2.4 g/kg, i.p.); and through a small midline neck incision (15-20 mm), the trachea is exposed and cannulated with 20-gauge tubing adapter. Lungs are lavaged with 2×1 ml sterile Hank's balanced salt solution without Ca++ and Mg++(HBSS). Lavage fluid is recovered after 30 sec by gentle aspiration and pooled for each animal. Samples are then centrifuged at 2000 rpm for 10 minutes at 5° C. Supernatant is aspirated, and red blood cells are lysed from the resulting pellet with 0.5 ml distilled water for 30 sec before restoring osmolarity to the remaining cells by the addition of 5 ml of HBSS. Samples are recentrifuged at 2000 rpm for 10 minutes at 5° C. and supernatant aspirated. The resulting pellet is resuspended in 1 ml of HBSS. Total cell number is determined by Trypan Blue (Sigma Chemical, St. Louis, Mo.) exclusion from an aliquot of cell suspension using a hemocytometer or coulter counter. For differential cell counts, an aliquot of the cell suspension is centrifuged in a Cytospin (5 min, 1300 rpm; Shandon Southern Instruments, Sewickley, Pa.) and the slides fixed and stained with a modified Wright's stain (Hema 3 stain kit, Fisher Scientific). Standard morphological criteria is used in classifying at least 300 cells under light microscopy. Data in Table 3 is expressed as BAL cells×10^4/animal for neutrophils and total cells, or percent inhibition of the LPS induced BAL fluid neutrophilia response.
# [3] = molecular target: T2, human neutrophil elastase (Homo sapiens, UniProt P08246); test: Peptide stability to neutrophil elastase (RP HPLC ESI MS); conditions: halftime with human neutrophil elastase 1 to 2 μg/mL in PBS, ambient temperature, normalized to halftime of the reference standard
# T2 sequence (P08246 30-247 limits assumed): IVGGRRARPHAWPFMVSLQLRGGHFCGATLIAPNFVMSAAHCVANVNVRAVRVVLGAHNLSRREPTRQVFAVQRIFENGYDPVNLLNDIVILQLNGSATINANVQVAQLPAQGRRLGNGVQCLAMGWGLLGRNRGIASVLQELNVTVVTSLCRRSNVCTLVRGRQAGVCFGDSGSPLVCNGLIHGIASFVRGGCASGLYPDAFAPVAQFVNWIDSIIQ
# Protocol: The proteolytic stabilities of peptide analogs were established with reversed phase high pressure liquid chromatography (RP HPLC) electrospray ionization mass spectrometry (ESI MS). Peptide analogs were incubated with human neutrophile elastase and the quantity of undigested analogs was determined by ESI MS at appropriate time points. Multiple peptide analogs could be included in one experiment as long as they could be differentiated by HPLC retention time and/or by molecular weight. Ac-His Ac-[sequence]Nle-[sequence]NH2 was used in all experiments as a control and as a reference standard. The simultaneous use of multiple peptide analogs together with a reference standard allowed for compensation for variations in the proteolytic fidelity of the enzyme over the multiple experiments. Integrated ion currents obtained for the individual undigested peptide were used for quantitation. For calculation of halftime first-order kinetic behavior was assumed and all calculations were normalized to the halftime of the reference standard.
# Peptide stock solutions were prepared in water to a concentration of 2.5 mg/mL. Unless in use, all stock solutions were kept at −20° C. […] Concentrations of the peptide analogs were adjusted accordingly. In order to do the proteolytic digestion, peptides were dissolved in phosphate buffered saline (PBS) to a concentration of 0.1 mg/mL. As many as six different peptide analogs were mixed into one 50 μL reaction volume. The reference standard was added to all experiments as a reference and internal standard. Elastase (Human Neutrophil, Calbiochem, Cat # 324681) was added from an elastase stock solution to a concentration of 1 to 2 μg/mL. Different amounts of the enzyme were chosen to compensate for the differences in the proteolytic stabilities of the peptide analogs. Previously, a stock solution of elastase was prepared in water at a concentration of 1 mg/mL. Small aliquots of the enzyme stock solution were kept at −20° C. to better maintain the enzyme activity by limiting the number of thaw and freeze cycles.
# The digestion was done at ambient temperature in an autosampler tube within the autosampler of the HPLC system (Agilent 1100 Series). For a time course, 5 μL aliquots were injected in 70 minute intervals onto the reversed phase HPLC column (Phenomenex, Luna C18, 3μ, 100 ↑, 150×2.00 mm). For the starting time point an aliquot was injected just prior to the addition of the proteolytic enzyme. A total of eight time points could be recorded from one experiment, including the starting point. Peptides were separated on the reversed phase column with a 50 minute gradient of 5% to 30% organic phase. The aqueous phase was 0.05% (v/v) of trifluoroacetic acid in water and the organic one was 0.045% (v/v) of trifluoroacetic acid in acetonitrile. Absorbances were recorded at 214 and 280 nm respectively. All of the column effluent was introduced into the turbo V source of the electrospray ionization mass spectrometer (ABI 4000 QTrap LC/MS/MS System). Mass spectra were acquired in Q3MS mode in a mass range to include all triply charged ions of the non degraded peptide analogs. Care was taken to assure that peptide analogs could clearly be differentiated either by the chromatographic retention time or by the difference in molecular weight. Relative quantities of the respective undigested peptide analog were calculated from the integrated total ion current. A window of 2.5 Da was chosen and the manufacturer's software was used to integrate the individual ion currents. The overall halftime of an individual peptide analog was calculated by assuming first-order kinetic behavior and was normalized with respect to the halftime of the reference standard.
# [4] = human T-lymphoid cell line Sup-T1 expressing VPAC2 receptor, cAMP EIA, 5 min at room temperature, read-out: Sup-T1 cAMP EC50
Structure (SMILES),"EC50 [1, 4]",Inhibition of LPS-induced neutrophilia ([2]; Dose 0.1%),Relative elastase stability [3],Inhibition of LPS-induced neutrophilia ([2]; Dose 0.01%),EC50 [1]
CCCC[C@H](NC(=O)[C@H](CCC(N)=O)NC(=O)[C@H](CCCCN)NC(=O)[C@H](CCCNC(=N)N)NC(=O)[C@H](CC(C)C)NC(=O)[C@H](CCCCN)NC(=O)[C@@H](NC(=O)[C@H](Cc1ccc(O)cc1)NC(=O)[C@H](CC(N)=O)NC(=O)[C@H](CCC(=O)O)NC(=O)[C@@H](NC(=O)[C@H](Cc1ccccc1)NC(=O)[C@@H](NC(=O)[C@H](C)NC(=O)[C@H](CC(=O)O)NC(=O)[C@H](CO)NC(=O)[C@H](Cc1c[nH]cn1)NC(C)=O)C(C)O)C(C)O)C(C)O)C(=O)N[C@@H](C)C(=O)N[C@@H](C)C(=O)N[C@@H](CCCCN)C(=O)N[C@H]1CCCCNC(=O)C[C@@H](C(=O)N[C@@H](CC(C)C)C(=O)N[C@@H](CCCCN)C(=O)N[C@@H](CCCCN)C(=O)NCC(=O)NCC(=O)N[C@H](C(N)=O)C(C)O)NC(=O)[C@H](CC(N)=O)NC(=O)[C@H](CC(C)C)NC(=O)[C@H](Cc2ccc(O)cc2)NC1=O (stereo partly shown) [Example 1] (Ac-HSDA[Thr(3ξ)]F[Thr(3ξ)]ENY[Thr(3ξ)]KLRKQ[Nle]AAKKYLNDLKKGG[Thr(3ξ)]-NH2; lactam 21-25),38 nM,+ (+ 10-30%),3.9,–,–
CCCC[C@H](NC(=O)[C@H](CCC(N)=O)NC(=O)[C@H](CCCCN)NC(=O)[C@H](CCCNC(=N)N)NC(=O)[C@H](CC(C)C)NC(=O)[C@H](CCCCN)NC(=O)[C@@H](NC(=O)[C@H](Cc1ccc(O)cc1)NC(=O)[C@H](CC(N)=O)NC(=O)[C@H](CCC(=O)O)NC(=O)[C@@H](NC(=O)[C@H](Cc1ccccc1)NC(=O)[C@H](CO)NC(=O)[C@H](C)NC(=O)[C@H](CC(=O)O)NC(=O)[C@H](CO)NC(=O)[C@H](Cc1c[nH]cn1)NC(C)=O)C(C)O)C(C)O)C(=O)N[C@@H](C)C(=O)N[C@@H](C)C(=O)N[C@@H](CCCCN)C(=O)N[C@H]1CCCCNC(=O)C[C@@H](C(=O)N[C@@H](CC(C)C)C(=O)N[C@@H](CCCCN)C(=O)N[C@@H](CCCCN)C(=O)NCC(=O)NCC(=O)N[C@H](C(N)=O)C(C)O)NC(=O)[C@H](CC(N)=O)NC(=O)[C@H](CC(C)C)NC(=O)[C@H](Cc2ccc(O)cc2)NC1=O (stereo partly shown) [Example 2] (Ac-HSDASF[Thr(3ξ)]ENY[Thr(3ξ)]KLRKQ[Nle]AAKKYLNDLKKGG[Thr(3ξ)]-NH2; lactam 21-25),69.7 nM,+ (+ 10-30%),5.2,–,–
CCCC[C@H](NC(=O)[C@H](CCC(N)=O)NC(=O)[C@H](CCCCN)NC(=O)[C@H](CCCNC(=N)N)NC(=O)[C@H](CC(C)C)NC(=O)[C@H](CCCCN)NC(=O)[C@@H](NC(=O)[C@H](Cc1ccc(O)cc1)NC(=O)[C@H](CC(N)=O)NC(=O)[C@H](CCC(=O)O)NC(=O)[C@@H](NC(=O)[C@H](Cc1ccccc1)NC(=O)[C@H](CO)NC(=O)[C@H](C)NC(=O)[C@H](CC(=O)O)NC(=O)[C@H](CO)NC(=O)[C@H](Cc1c[nH]cn1)NC(C)=O)C(C)O)C(C)O)C(=O)N[C@@H](CCC(=O)O)C(=O)N[C@@H](C)C(=O)N[C@@H](CCCCN)C(=O)N[C@H]1CCCCNC(=O)C[C@@H](C(=O)N[C@@H](CC(C)C)C(=O)N[C@@H](CCCCN)C(=O)N[C@@H](CCCCN)C(=O)NCC(=O)NCC(=O)N[C@H](C(N)=O)C(C)O)NC(=O)[C@H](CC(N)=O)NC(=O)[C@H](CC(C)C)NC(=O)[C@H](Cc2ccc(O)cc2)NC1=O (stereo partly shown) [Example 7] (Ac-HSDASF[Thr(3ξ)]ENY[Thr(3ξ)]KLRKQ[Nle]EAKKYLNDLKKGG[Thr(3ξ)]-NH2; lactam 21-25),632 nM,–,16.4,++ (++ >30%),–
CCCC[C@H](NC(=O)[C@H](CCCNC(=N)N)NC(=O)[C@H](CCCCN)NC(=O)[C@H](CCCNC(=N)N)NC(=O)[C@H](CC(C)C)NC(=O)[C@H](CCCCN)NC(=O)[C@@H](NC(=O)[C@H](Cc1ccc(O)cc1)NC(=O)[C@H](CC(N)=O)NC(=O)[C@H](CCC(=O)O)NC(=O)[C@@H](NC(=O)[C@H](Cc1ccccc1)NC(=O)[C@H](CO)NC(=O)[C@H](C)NC(=O)[C@H](CC(=O)O)NC(=O)[C@H](CO)NC(=O)[C@H](Cc1c[nH]cn1)NC(C)=O)[C@@H](C)O)[C@@H](C)O)C(=O)N[C@@H](C)C(=O)N[C@@H](C)C(=O)N[C@@H](CCCCN)C(=O)N[C@H]1CCCCNC(=O)C[C@@H](C(=O)N[C@@H](CC(C)C)C(=O)N[C@@H](CC(C)C)C(=O)N[C@@H](CC(N)=O)C(=O)NCC(=O)NCC(=O)N[C@H](C(N)=O)[C@@H](C)O)NC(=O)[C@H](CC(N)=O)NC(=O)[C@H](CC(C)C)NC(=O)[C@H](Cc2ccc(O)cc2)NC1=O [Example 14] (Ac-HSDASFTENYTKLRKR[Nle]AAKKYLNDLLNGGT-NH2; lactam 21-25),–,–,4.5,–,94.1 nM
CCCC[C@H](NC(=O)[C@H](CCCNC(=N)N)NC(=O)[C@H](CCCCN)NC(=O)[C@H](CCCNC(=N)N)NC(=O)[C@H](CC(C)C)NC(=O)[C@H](CCCCN)NC(=O)[C@@H](NC(=O)[C@H](Cc1ccc(O)cc1)NC(=O)[C@H](CC(N)=O)NC(=O)[C@H](CCC(=O)O)NC(=O)[C@@H](NC(=O)[C@H](Cc1ccccc1)NC(=O)[C@H](CO)NC(=O)[C@H](C)NC(=O)[C@H](CC(=O)O)NC(=O)[C@H](CO)NC(=O)[C@H](Cc1c[nH]cn1)NC(C)=O)C(C)O)C(C)O)C(=O)N[C@@H](CCCCN)C(=O)N[C@@H](C)C(=O)N[C@@H](CCCCN)C(=O)N[C@H]1CCCCNC(=O)C[C@@H](C(=O)N[C@@H](CC(C)C)C(=O)N[C@@H](CCCCN)C(=O)N[C@@H](CCCCN)C(=O)NCC(=O)NCC(=O)N[C@H](C(N)=O)C(C)O)NC(=O)[C@H](CC(N)=O)NC(=O)[C@H](CC(C)C)NC(=O)[C@H](Cc2ccc(O)cc2)NC1=O (stereo partly shown) [Example 16] (Ac-HSDASF[Thr(3ξ)]ENY[Thr(3ξ)]KLRKR[Nle]KAKKYLNDLKKGG[Thr(3ξ)]-NH2; lactam 21-25),1030 nM,–,4.4,–,–
